Measurements from patent US12559504B2, “Benzotriazole derivative” (UBE CORPORATION, priority 2019, dated 2026).

Columns and labels:
[1] = target: T1, GST fusion human Keap1 (amino acid residue: 325-624) protein (Homo sapiens, UniProt Q14145); experiment: Keap1-Nrf2 binding inhibition test (fluorescence polarization); conditions: compound concentration of 100 nM; read-out: inhibition rate
T1 construct: GST fusion human Keap1 (amino acid residue: 325-624) protein; purchased Protein tech Ag0779
Method: The inhibitory activity of each test compound on the binding between Nrf2 and Keap1 was measured by the fluorescence polarization method. A solution consisting of 20 mM tris-hydrochloride pH7.5 (NIPPON GENE CO., LTD., REF: 318-90225), 150 mM NaCl [FUJIFILM Wako Pure Chemical. Corporation, REF: 191-01665], 0.05% Tween 20 (BioRAD, REF: 161-0781), and 5 mM DTT (FUJIFILM Wako Pure Chemical Corporation, REF: 049-08972) was used as a buffer solution. To a test compound solution (70 μL) adjusted to each concentration with 10% DMSO (FUJIFILM Wako Pure Chemical Corporation, REF: 043-07216) was added a buffer solution (350 μL) comprising 6 nM FITC-labeled Nrf2 peptide (FITC-Ahx-LDEETGEFL-NH2, Invitrogen) and 0.2 mg/mL of BSA (FUJIFILM Wako Pure Chemical Corporation, REF: 017-22231). Each 120 μL of the resulting mixture was dispensed into a black 96 well plate, and a buffer solution (80 μL) comprising 2.5 nM GST fusion human Keap1 (amino acid residue: 325-624) protein (Protein tech, REF: Ag0779) was added thereto. A Keap1-free buffer solution was added to some wells to prepare negative controls. Meanwhile, compound-free wells were used as positive controls. The plate was incubated at room temperature for 30 minutes, and each fluorescence polarization at excitation wavelength of 482 nm and fluorescence wavelength of 530 nm was measured by using a plate reader Clariostar (BMG Labtech). The fluorescence polarization of the negative control was set to be 100% inhibition, fluorescence polarization of the positive control was set to be 0% inhibition, and the inhibition rate of each test compound at 100 nM was calculated by using the following equation. Inhibition rate (%)=100−((Fluorescence polarization when test compound was added−Fluorescence polarization of negative control)/(Fluorescence polarization of positive control−Fluorescence polarization of negative control))×100

NQO1 [2] = experiment: NQO1 expression induction test in mouse kidney (single administration); assay type: in vivo; conditions: Mus musculus, po, 6 h, BALB/c mouse kidney, 6 hours after administration, ratio to control group
Method: Each test compound solution for administration was prepared by dissolving or suspending each test compound into a 0.5 w/v % aqueous solution of methylcellulose (0.5% MC) (manufactured by Wako Pure Chemical Industries, Ltd.).
Each prepared test compound was orally administered to a BALB/c mouse (female, provided by Charles River Laboratories Japan, Inc.). Non-treated group was used as a control group. After 6 hours from the administration, each mouse was anesthetized with isoflurane, and euthanized with bloodletting by incising a lower aorta. Immediately, the left kidney was excised, cut into small pieces, and then the cut kidney pieces were transferred to RNA later (Thermo Fisher Scientific).
Then, mRNA was extracted from the collected kidney pieces by using NucleoSpin (registered trademark) RNA Kit (Takara Bio Inc.), each concentration was quantified by FlexStation3 (Molecular Devices), and then the concentration was adjusted to a constant concentration. A reverse transcription synthesis of cDNA was carried out from the mRNA with the constant concentration by using PrimeScript™ RT reagent Kit with gDNA Eraser and PCR Thermal Cycler (Takara Bio Inc.). Then, in addition to the resulting cDNA, SYBR (registered trademark) Premix Ex Taq™ II and NQO1, GAPDH primer (Takara Bio Inc.) were used to carry out Real-time PCR by PCR Thermal Cycler Dice Real time (Takara Bio Inc.), and the NQO1 expression was quantified by using the GAPDH expression as the reference.
In order to evaluate the NQO1 expression induction in each group, the NQO1 expression induction ratio was calculated by using the following equation. (NQO1 expression induction ratio)=(Average NQO1 expression in test compound administered group)[…](Average NQO1 expression in control group)

NQO1 [3] = experiment: NQO1 enzyme induction test (in vitro) in Hepa1c1c7 cells; assay type: cell-based; conditions: Mus musculus, Hepa-1c1c7, 48 h, concentration to elevate the NQO1 activity by 1.5 times, about 48 hours, read-out: EC150
Method: Each NQO1 assay was carried out by modifying a known method (Anal Biochem 1998; 169: 328-, Methods Enzymol 2004; 382: 243-). Hepa1c1c7 cells (mouse hepatocyte line manufacture by DS Pharma Biomedical Co., Ltd., REF. No. 95090613) were cultured (5% CO2, 37° C.). The cells were cultured in MEMα (manufactured by FUJIFILM Wako Pure Chemical Corporation, REF. 135-15175) medium comprising 10% FBS (manufactured by GIBCO, REF. 10082) and […]/streptomycin/amphotericin B (manufactured by GIBCO, REF. 15240), and dispensed into a 96 well plate (manufactured by Costar, REF. 3610) at 2.0×10^3 cells/well. On the next day, test compound (final concentration of […]: 0.1%) dissolved into DMSO (manufactured by FUJIFILM Wako Pure Chemical Corporation, REF. 043-07216) was added to each well, and the plate was further cultured for about 48 hours.
A cell lysate manufactured by Cell signaling Technology, Inc. (REF. 9803) with the addition of a Protease Inhibitor manufactured by Roche Diagnostics K.K. (REF. 11-873580001) was used. A reaction solution (which is a solution comprising trishydrochloric acid (25 mM), albumin […], Tween-20 (0.01%), glucose-6-phosphate dehydrogenase (2 U/mL), flavin-adenine dinucleotide (5 μM), glucose-6-phosphate (1 μM), nicotinamide adenine dinucleotide phosphate (30 μM), 3-(4,5-dimethyl-2-thiazolyl)-2,5-diphenyltetrazolium bromide (MTT) (0.03%), and menadione (50 μM)), and a stop solution (which is a solution comprising dicumarol (0.3 mM) and potassium dihydrogen phosphate (5 mM), pH 7.4) were prepared. After the medium was removed, cell lysate (50 μL) was added thereto, and the resulting mixture was shaken at room temperature for 20 minutes. The reaction solution (200 μL) was added thereto, and the resulting mixture was left to stand at room temperature for 5 minutes. The stop solution (50 μL) was added thereto, and absorbance at 540 nm (reference 750 nm) was measured.
Cell number was measured by Cell Titer Glo assay (manufactured by Promega Corporation, REF. G9242) by using another plate prepared according to the same conditions as those described above, and correction of absorbance was carried out. The test result was analyzed by Excel, and the EC150 value which is the concentration to elevate the NQO1 activity by 1.5 times was calculated.

[4] = Metabolism test using human liver microsome fractions; assay type: in vitro ADME; conditions: human liver microsomes, test compound 10 μmol/L, NADPH and UDP-glucuronic acid, 37° C.
Method: A reaction composition solution (comprising NADPH Regenerating System, Solution A (manufactured by Corning Inc., REF. 451220) (50 μL), NADPH Regenerating System, Solution B (manufactured by Corning Inc., REF. 451200) (10 μL), 250 mM UDP-glucuronic acid (40 μL), UGT Reaction Mix Solution B (manufactured by Corning Inc., REF. 451320) (200 μL), and distilled water (640 μL)) in which human liver microsomes (manufactured by Xenotech, Cat. No. H610) or monkey liver microsomes (manufactured by Xenotech, Cat. No. P2000) (corresponding to 1 mg of protein) were suspended was prepared. After the solution was incubated at 37° C. for 5 minutes, each test compound dissolved into DMSO (manufactured by FUJIFILM Wako Pure Chemical Corporation, Code No. 043-07216) was added to the solution so that the final concentration was set to be 10 μmol/L, and a reaction was initiated. After 0, 5, 10, 15, 20, and 30 minute(s) from the initiation of the metabolism reaction, 100 μL of the reaction solution was taken out of the reaction system, and added to 200 μL of acetonitrile to stop the reaction. After the reaction was completed, the reaction solution was subjected to a work-up such as deproteinization, and then subjected to an UV-HPLC analysis to carry out the following analysis.
The peak area of each test compound was calculated by LabSolution software (Shimadzu Corporation), and the residual ratio (%) at each culture time of test material was calculated by the following equation. Residual ratio (%)=Peak area at each culture time[…]Peak area at 0 (initial time)
Next, the residual amount (nmol/mg/mL) at each culture time of test material was calculated by the following equation. Residual amount (nmol/mg/mL)=Initial concentration of reaction solution (10 nmol/mg/mL)×residual ratio÷100
Finally, a graph in which the reaction time was plotted at horizontal axis and the residual amount was plotted at longitudinal axis was prepared on Excel, and the inclination was calculated as the elimination rate (pmol/min/mg-P) within the time range in which the graph was deemed linear.

T1 sequence (Q14145 325-624): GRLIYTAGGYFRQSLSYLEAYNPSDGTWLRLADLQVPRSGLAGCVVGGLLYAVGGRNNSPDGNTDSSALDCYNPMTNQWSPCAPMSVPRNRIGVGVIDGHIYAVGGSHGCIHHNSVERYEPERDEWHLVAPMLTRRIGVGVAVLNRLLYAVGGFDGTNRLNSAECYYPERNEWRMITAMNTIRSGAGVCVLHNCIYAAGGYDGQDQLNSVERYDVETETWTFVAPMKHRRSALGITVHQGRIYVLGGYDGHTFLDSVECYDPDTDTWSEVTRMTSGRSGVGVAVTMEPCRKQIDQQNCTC

inhibition at 0.1 µM [1] [%]	SMILES	fold induction at 30 mg/kg (NQO1 [2])	EC (1.5-fold NQO1 activity) (NQO1 [3]) [µM]	Human metabolic rate [4]	fold induction at 20 mg/kg (NQO1 [2]; Dose 20 mg/kg)
≥ 50	CC[C@@H]1CN(Cc2cc(C(c3ccc4c(nnn4C)c3C)C(C)(C)C(=O)O)ccc2C)CC2=C(C=CC3=NCCCN32)O1 (stereo partly drawn) [Example 23, 3-(1,4-dimethyl-1H-benzo[d][1,2,3]triazol-5-yl)-3-(3-(((R)-4-ethyl-1,3,4,9,10,11-hexahydro-2H-pyrimido[1′,2′:1,6]pyrido[2,3-f][1,4]oxazepin-2-yl)methyl)-4-methylphenyl)-2,2-dimethylpropanoic Acid]	≤ 3	0.05 to 0.5	–	–
≥ 50	Cc1ccc(C(c2ccc3c(nnn3C)c2C)C(C)(C)C(=O)O)cc1CN1Cc2cc3ncccc3cc2OC2(CC2)C1 (single isomer, unassigned) [Example 85, 3-(3-((3′H-spiro[cyclopropane-1,2′-[1,4]oxazepino[7,6-g]quinoline]-4′(5′H)-yl)methyl)-4-methylphenyl)-3-(1,4-dimethyl-1H-benzo[d][1,2,3]triazol-5-yl)-2,2-dimethylpropanoic Acid]	–	0.0005 to 0.005	A (metabolic rate<100 pmol/min/mg protein)	–
≥ 50	CC[C@@H]1CN(Cc2cc(C(c3ccc4c(nnn4C)c3C)C(C)(C)C(=O)O)ccc2C)Cc2cc3cc(C)ccc3nc2O1 (stereo partly drawn) [Example 14-(b), 3-(1,4-dimethyl-1H-benzo[d][1,2,3]triazol-5-yl)-3-(3-(((R)-2-ethyl-8-methyl-2,3-dihydro-[1,4]oxazepino[7,6-b]quinolin-4 (5H)-yl)methyl)-4-methylphenyl)-2,2-dimethylpropanoic Acid]	> 6	0.0005 to 0.005	–	–
≥ 50	CC[C@@H]1CN(Cc2cc(C(c3ccc4c(nnn4C)c3C)C(C)(C)C(=O)O)ccc2C)Cc2c(ccc3cn[nH]c23)O1 (stereo partly drawn) [Example 20-(b), 3-(1,4-dimethyl-1H-benzo[d][1,2, 3]triazol-5-yl)-3-(3-(((R)-7-ethyl-1,7,8,10-tetrahydro-9H-[1,4]oxazepino[7,6-g]indazol-9-yl)methyl)-4-methylphenyl)-2,2-dimethylpropanoic Acid]	–	0.0005 to 0.005	D (200≤metabolic rate<250 pmol/min/me protein)	–
≥ 50	CC[C@@H]1CN(Cc2cc(C(c3ccc4c(nnn4C)c3C)C3(C(=O)O)CCC3)ccc2C)Cc2cc3ncccc3cc2O1 (single isomer, unassigned) [Example 87]	–	0.0005 to 0.005	A (metabolic rate<100 pmol/min/mg protein)	–
≥ 50	CC[C@@H]1CN(Cc2cc(C(c3ccc4c(nnn4C)c3C)C(C)(C)C(=O)O)ccc2C)Cc2cc3[nH]ncc3cc2O1 (stereo partly drawn) [Example 64-(b), 3-(1,4-dimethyl-1H-benzo[d][1,2,3)triazol-5-yl)-3-(3-(((R)-6-ethyl-1,6,7,9-tetrahydro-8H-(1,4]oxazepino[7,6-f]indazol-8-yl)methyl)-4-methylphenyl)-2,2-dimethylpropanoic Acid]	–	0.005 to 0.05	B (100≤metabolic rate<150 pmol/min/mg protein)	–
–	CC[C@@H]1CN(Cc2cc(C(c3ccc4c(nnn4C)c3C)C3(C(=O)O)CCCC3)ccc2C)Cc2cc3ncccc3cc2O1 (stereo partly drawn) [Example 83-(b), 1-((1,4-dimethyl-1H-benzo[d][1,2,3]triazol-5-yl) (3-(((R)-2-ethyl-2,3-dihydro-[1,4]oxazepino[7,6-g]quinolin-4 (5H)-yl)methyl)-4-methylphenyl)methyl)cyclopentane-1-carboxylic Acid]	–	0.005 to 0.05	C (150≤metabolic rate<200 pmol/min/mg protein)	> 6
–	CC[C@@H]1CN(Cc2cc(C(c3ccc4c(nnn4C)c3C)C(C)(C)C(=O)O)ccc2C)Cc2c(ccc3c2CCCC3)O1 (stereo partly drawn) [Example 5-(b), 3-(1,4-dimethyl-1H-benzo[d][1,2,3)triazol-5-yl)-3-(3-(((R)-4-ethyl-3,4,8,9,10,11-hexahydronaphtho(1,2-f) (1,4]oxazepin-2(1H)-yl)methyl)-4-methylphenyl)-2,2-dimethylpropanoic Acid]	–	0.05 to 0.5	–	–
